Test results reported in PMC7415810, “A novel nucleolin-binding peptide for Cancer Theranostics” (Theranostics, 2020).

Assays:
MCF-10A = assay: Whole-cell binding assay on OBOC peptide beads; assay type: cell-based, human; set-up: key: ++++: very strong binding (>40 cells per bead); +++: strong binding (30 -20 cells per bead); ++: moderate binding (20 - 10 cells per bead); +: weak binding (5-10 cells per bead); -: no binding; conditions: peptide on TentaGel beads incubated with cells at 10^6 cells/ml; repeated 3 times
Experimental: The beads were washed extensively with double-distilled water and phosphate-buffered saline (PBS; Welgene Inc., Korea) before screening. Cancer and normal cells were detached from culture dishes with trypsin/EDTA (Gibco), washed with their corresponding culture medium, resuspended at 10^6 cells/ml, and incubated with OBOC beads in Petri dishes in a humidified CO2 incubator at 37 °C with shaking (60 rpm). Beads bound by cells appeared under a microscope as rosettes in which a central bead was covered by one or more layers of cells. The positive beads were picked with a pipette under an inverted microscope, treated with guanidine-HCL (8 M, 20 min) to remove cells and proteins on the bead surface, and subjected to a second round of screening with normal breast epithelial cells to eliminate false positive binding.
Note : Semiquantitative relative binding activity: “++++” very strong binding (>40 cells per bead), “+++” strong binding (30
-20 cells per bead), “+ +” moderate binding (20 - 10 cells per bead), “+” weak binding (5-10 cells per bead), “-” no binding. […]
Figure S1. A, Steps performed in peptide library synthesis and screening. 1, The split-mix synthesis method was performed to construct the combinatorial OBOC libraries. […]
sized. 3, OBOC libraries were incubated with cancer cells in a CO2 incubator. 4, Beads carrying ligands with an affinity for cell surface molecules became covered with cells. 5, The positive beads were picked with a pipette under an inverted microscope. 6, The peptide sequences for positive beads were determined by Edman microse - […]
peptide libraries. B, The binding specificities of the peptides against cancer cell and normal cells were deter- […]
breast and colorectal cancer cells and normal breast and colorectal cells were re-suspended at 10^6 cells/ml and incubated with beads. All experiments were repeated 3 times. Scale bar, 200 μm.

MDA-MB-231-luc xenograft = assay: Tumorigenesis experiment, MDA-MB-231-luc breast cancer xenograft; conditions: 16.68 mg/kg (molar equivalent to 2 mg/kg of PTX), tail vein twice a week, n = 5
Experimental: All animal experiments were performed in accordance with IACUC guidelines (GIST-2019-040). For tumorigenesis experiments, anesthetized 6-week-old female NOD-scid Il2rg^-^/^- mice (NPG^TM, VITALSTAR) were inoculated in the mammary fat pad with 1 × 10^6 MDA-MB-231-luc cells in a 100 μl volume (n = 5 for each group). After tumor cell inoculation, when the tumor volume reached approximately 100 mm^3, the mice were randomly divided into the following five groups: (i) control, (ii) low-dose paclitaxel (2 mg/kg), (iii) high-dose paclitaxel (10 mg/kg), (iv) AGM-330 (16.68 mg/kg, molar equivalent to 2 mg/kg of PTX), and (v) AGM-330-PTX (19.05 mg/kg, molar equivalent to 2 mg/kg of PTX). The tumor size was measured twice a week, and the tumor volume was calculated with the following formula: volume (mm^3) = [length (mm)] × [width (mm)]^2 × 0.5. For the bioluminescent imaging experiment, D-luciferin (150 mg/kg; PerkinElmer) was intraperitoneally injected into each mouse, and an IVIS 100 imaging system (Xenogen, Corporation, Alameda, CA) was used for bioluminescent monitoring. Mice were anesthetized with vaporized isofurane (BK Pharm, Ilsan, Korea) and placed in an imaging chamber. After 10 min, each animal was imaged with an exposure time of 1 min. All bioluminescent image data were obtained using Living Image software (version 4.5.2, PerkinElmer). Photons detected from tumors were converted to average radiance values (photon/sec/cm^2/sr), which are quantitative data obtained from a region of […] (ROI) and include the photons emitted by bioluminescent cells from an assigned rectangular area over the whole body of each mouse.
A, Cell proliferation inhibition by AGM-330-PTX treatment was determined for 48 h by the WST assay in multiple breast and colorectal cancer cells and in normal cells. B, Schematic representation of the experimental protocol as described in the materials and methods section. Anesthetized 6‑week-old […] NPG mice were inoculated with a 1:1 mix of Matrigel and 1 × 10^6 MDA-MB-231-luc cells into the mammary fat pad. When the volume of primary tumors reached approximately 100 mm^3, tumor-bearing mice were treated with vehicle (PBS), PTX (2 or 10 mg/kg), AGM-330 (16.68 mg/kg, molar equivalent to 2 mg/kg of PTX), or AGM-330-PTX (19.05 mg/kg, molar equivalent to 2 mg/kg of PTX; n = 5/group). C-E, The therapeutic effect of AGM-330-PTX was evaluated in breast cancer xenograft models. C, Primary tumor volume was measured twice a week until the day of sacrifice. The primary tumor volume was calculated by the formula volume (mm^3) = (length (mm)) × (width (mm))^2 × 0.5. D, On the day of sacrifice, all primary tumors were isolated, and (E) the primary tumor weights were evaluated. F-I, Immunohistochemistry (IHC) sections of representative tumors with Ki-67 (F,H) and TUNEL (G,I) staining. Nuclei were stained with DAPI (blue). Scale bar, 50 µm. Bar graphs represent the mean ± SD, and statistical analyses were performed by one-way ANOVA with Dunnett's multiple comparison. *, **, and *** indicate P < 0.05, P < 0.01, and P < 0.001, respectively.
Following in vitro proliferation analysis on cancer lines, we investigated whether AGM-330-PTX could be a potential therapeutic agent in vivo. We inoculated MDA-MB-231-luc cells into the mammary fat pad of NPG mice. After the […] tumors grew to 100 mm^3, comparative efficacy studies were performed by dividing the animals into five groups (n = 5/group) treated with vehicle (PBS), PTX (2 or 10 mg/kg, respectively), AGM-330 (16.68 mg/kg, molar equivalent to 2 mg/kg of PTX), or AGM-330-PTX (19.05 mg/kg, molar equivalent to 2 mg/kg of PTX) twice a week by tail vein injection (Figure 5B). Tumor growth was monitored by measuring volumes twice a week with a caliber rule over the course of 3 weeks.
Figure S11. A-E, NPG TM mice bearing MDA-MB-231-luc tumors were treated twice a week for 21 days with […]

Question: What does the source list for `CSCC[C@H](NC(=O)[C@H](C)NC(=O)CNC(=O)[C@H](Cc1c[nH]cn1)NC(=O)[C@@H](N)CCCNC(=N)N)C(=O)N[C@H](C(=O)N[C@@H](Cc1ccc(O)cc1)C(=O)N[C@@H](CC(C)C)C(=O)N[C@@H](CCCCN)C(=O)NCCOCCOCCOCCOCCOCCOCCOCCOCCOCCOCCOCCOCCC(=O)NCCCC[C@H](NC(=O)CCOCCOCCOCCOCCOCCOCCOCCOCCOCCOCCOCCOCCNC(=O)[C@H](CCCCN)NC(=O)[C@H](CC(C)C)NC(=O)[C@H](Cc1ccc(O)cc1)NC(=O)[C@@H](NC(=O)[C@H](CCSC)NC(=O)[C@H](C)NC(=O)CNC(=O)[C@H](Cc1c[nH]cn1)NC(=O)[C@@H](N)CCCNC(=N)N)C(C)C)C(=O)NCCCC[C@H](NC(=O)[C@H](CCCCNC(=O)CCOCCOCCOCCOCCOCCOCCOCCOCCOCCOCCOCCOCCNC(=O)[C@H](CCCCN)NC(=O)[C@H](CC(C)C)NC(=O)[C@H](Cc1ccc(O)cc1)NC(=O)[C@@H](NC(=O)[C@H](CCSC)NC(=O)[C@H](C)NC(=O)CNC(=O)[C@H](Cc1c[nH]cn1)NC(=O)[C@@H](N)CCCNC(=N)N)C(C)C)NC(=O)CCOCCOCCOCCOCCOCCOCCOCCOCCOCCOCCOCCOCCNC(=O)[C@H](CCCCN)NC(=O)[C@H](CC(C)C)NC(=O)[C@H](Cc1ccc(O)cc1)NC(=O)[C@@H](NC(=O)[C@H](CCSC)NC(=O)[C@H](C)NC(=O)CNC(=O)[C@H](Cc1c[nH]cn1)NC(=O)[C@@H](N)CCCNC(=N)N)C(C)C)C(=O)N[C@@H](CS)C(=O)O)C(C)C` [AGM-330]?
Answer: Semiquantitative relative binding activity, MCF-10A (MCF-10A): -; average tumor volume versus vehicle (PBS)-treated mice (MDA-MB-231-luc xenograft): no significant difference
